# Molecular target: T1, soluble guanylate cyclase (Homo sapiens, UniProt Q02153)
# T1 construct: expressed in transfected cells
# Test: CHO cellular assay (cGMP production, Cisbio cGMP HTRF)
# Format: cell-based
# Details: CHO K1 cells overexpressing human GUCYA3/GUCYB3 (clone 8E10), 1 mM IBMX, 20 uM ODQ, 1 h room temperature, listed 0.5 nM means actual EC50 ≤0.5 nM (quantification limit)
# From the text: Chinese hamster ovary (CHO) cells overexpressing soluble guanylate cyclase were generated to test the effect of sGC activators in a cellular context. Human cDNAs for GUCYA3 (RefSeq: NM_000856.3) and GUCYB3 (RefSeq: NM_000857.1) were amplified by PCR from a HUVEC (Human Umbilical Vein Endothelial Cells) cDNA library and cloned into mammalian expression vectors. CHO K1 cells (ATCC CCL-61) were transfected using Lipofectamine 2000 following manufacturer's instructions and stably expressing clones were identified by antibiotic selection. CHO GUCY clone 8E10 was used for subsequent experiments.
# Cells were seeded at a density of 3000 cells/well in white 384-well proxyplates (Perkin Elmer) and incubated overnight, then the medium was removed and cells were washed with assay buffer (HBSS, 0.1% BSA, 1 mM IBMX, 20 uM ODQ). sGC activators were serially diluted in DMSO, then diluted in assay buffer prior to adding to cells (10 ul/well, final DMSO concentration 0.5%). Cells were incubated with compounds for 1 h room temperature, then assayed for cGMP production using Cisbio cGMP HTRF kit (62GM2PEC) according to manufacturer's instructions.
# The EC50s are calculated based on the amount of cGMP interpolated from the standard curve, using a 4-parameter sigmoidal dose-response.
# Compounds of invention are active on sGC activation. Data on Table 1 collected using the assay of Biological Example 1. The minimum EC50 quantification limit of the assay is 0.5 nM, therefore any compound listed as having an EC50 value of 0.5 nM has a actual EC50 of ≤0.5 nM.
# T1 sequence (Q02108 whole entry partner): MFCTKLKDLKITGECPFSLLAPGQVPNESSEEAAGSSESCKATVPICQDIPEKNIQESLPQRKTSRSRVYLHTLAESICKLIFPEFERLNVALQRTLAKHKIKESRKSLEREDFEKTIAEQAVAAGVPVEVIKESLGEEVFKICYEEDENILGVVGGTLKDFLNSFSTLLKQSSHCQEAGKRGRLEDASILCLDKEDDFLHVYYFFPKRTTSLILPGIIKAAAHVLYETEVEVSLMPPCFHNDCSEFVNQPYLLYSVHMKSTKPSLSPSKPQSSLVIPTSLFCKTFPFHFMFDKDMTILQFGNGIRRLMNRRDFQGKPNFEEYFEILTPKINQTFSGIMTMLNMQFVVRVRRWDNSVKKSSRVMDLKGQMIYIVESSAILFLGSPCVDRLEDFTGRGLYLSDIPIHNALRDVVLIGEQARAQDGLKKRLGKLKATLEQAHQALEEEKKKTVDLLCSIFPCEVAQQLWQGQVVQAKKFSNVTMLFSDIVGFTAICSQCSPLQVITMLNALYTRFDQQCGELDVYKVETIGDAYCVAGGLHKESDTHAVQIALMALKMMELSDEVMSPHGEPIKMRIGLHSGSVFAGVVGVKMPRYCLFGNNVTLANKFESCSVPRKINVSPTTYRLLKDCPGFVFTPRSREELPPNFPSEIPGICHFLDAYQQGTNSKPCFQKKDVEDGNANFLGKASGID
# T1 sequence (Q02153 whole entry): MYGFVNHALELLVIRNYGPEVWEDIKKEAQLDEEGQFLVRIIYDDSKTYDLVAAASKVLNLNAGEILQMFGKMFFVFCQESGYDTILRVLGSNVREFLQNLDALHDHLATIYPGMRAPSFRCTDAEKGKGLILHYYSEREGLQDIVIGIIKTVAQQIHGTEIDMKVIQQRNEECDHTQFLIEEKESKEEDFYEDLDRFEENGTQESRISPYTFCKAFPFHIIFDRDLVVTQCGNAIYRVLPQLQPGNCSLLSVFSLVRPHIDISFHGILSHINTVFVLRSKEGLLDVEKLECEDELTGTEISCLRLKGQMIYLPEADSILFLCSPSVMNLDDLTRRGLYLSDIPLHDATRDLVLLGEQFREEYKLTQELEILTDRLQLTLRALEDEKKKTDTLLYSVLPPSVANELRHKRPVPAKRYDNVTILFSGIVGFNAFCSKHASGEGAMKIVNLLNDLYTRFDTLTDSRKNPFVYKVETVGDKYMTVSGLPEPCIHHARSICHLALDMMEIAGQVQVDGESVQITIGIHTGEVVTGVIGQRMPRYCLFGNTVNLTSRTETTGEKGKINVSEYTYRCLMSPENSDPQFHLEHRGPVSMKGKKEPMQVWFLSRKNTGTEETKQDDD
row,EC50 [nM],Structure (SMILES)
1,≤ 0.5,"Cc1cc(C2CCN(C(=O)C3CC3)CC2)ccc1OCC1=C(c2cccc(-n3ncc(C(=O)O)c3C(F)(F)F)n2)CCCC1 [Example 1, 1-(6-(2-((4-(1-(Cyclopropanecarbonyl)piperidin-4-yl)-2-methylphenoxy)methyl)cyclohex-1-en-1-yl)pyridin-2-yl)-5-(trifluoromethyl)-1H-pyrazole-4-carboxylic acid]"
2,≤ 0.5,"CCC(=O)N1CCC(c2ccc(OCC3=C(c4cccc(-n5ncc(C(=O)O)c5C(F)(F)F)n4)CCCC3)c(C)c2)CC1 [Example 2-1, 1-(6-(2-((2-methyl-4-(1-propionylpiperidin-4-yl)phenoxy)methyl)cyclohex-1-en-1-yl)pyridin-2-yl)-5-(trifluoromethyl)-1H-pyrazole-4-carboxylic acid]"
3,1,"COC(=O)N1CCC(c2ccc(OCC3=C(c4cccc(-n5ncc(C(=O)O)c5C(F)(F)F)n4)CCCC3)c(C)c2)CC1 [Example 2-2, 1-(6-(2-((4-(1-(methoxycarbonyl)piperidin-4-yl)-2-methylphenoxy)methyl)cyclohex-1-en-1-yl)pyridin-2-yl)-5-(trifluoromethyl)-1H-pyrazole-4-carboxylic acid]"
4,1,"Cc1cc(C2CCN(S(C)(=O)=O)CC2)ccc1OCC1=C(c2cccc(-n3ncc(C(=O)O)c3C(F)(F)F)n2)CCCC1 [Example 2-3, 1-(6-(2-((2-methyl-4-(1-(methylsulfonyl)piperidin-4-yl)phenoxy)methyl)cyclohex-1-en-1-yl)pyridin-2-yl)-5-(trifluoromethyl)-1H-pyrazole-4-carboxylic acid]"
5,1,"Cc1cc(C2CCN(C(=O)N(C)C)CC2)ccc1OCC1=C(c2cccc(-n3ncc(C(=O)O)c3C(F)(F)F)n2)CCCC1 [Example 2-4, 1-(6-(2-((4-(1-(dimethylcarbamoyl)piperidin-4-yl)-2-methylphenoxy)methyl)cyclohex-1-en-1-yl)pyridin-2-yl)-5-(trifluoromethyl)-1H-pyrazole-4-carboxylic acid]"
6,2.4,"Cc1cc(C2CCN(C(=O)CO)CC2)ccc1OCC1=C(c2cccc(-n3ncc(C(=O)O)c3C(F)(F)F)n2)CCCC1 [Example 2-5, 1-(6-(2-((4-(1-(2-hydroxyacetyl)piperidin-4-yl)-2-methylphenoxy)methyl)cyclohex-1-en-1-yl)pyridin-2-yl)-5-(trifluoromethyl)-1H-pyrazole-4-carboxylic acid]"
7,6.3,"O=C(O)c1cnn(-c2cccc(C3=C(COc4ccc(C5CCN(C(=O)C6CC6)CC5)cc4)CCCC3)n2)c1C(F)(F)F [Example 2-6, 1-(6-(2-((4-(1-(cyclopropanecarbonyl)piperidin-4-yl)phenoxy)methyl)cyclohex-1-en-1-yl)pyridin-2-yl)-5-(trifluoromethyl)-1H-pyrazole-4-carboxylic acid]"
8,2,"CCN(CC)C(=O)N1CCC(c2ccc(OCC3=C(c4cccc(-n5ncc(C(=O)O)c5C(F)(F)F)n4)CCCC3)c(C)c2)CC1 [Example 2-7, 1-(6-(2-((4-(1-(diethylcarbamoyl)piperidin-4-yl)-2-methylphenoxy)methyl)cyclohex-1-en-1-yl)pyridin-2-yl)-5-(trifluoromethyl)-1H-pyrazole-4-carboxylic acid]"
9,≤ 0.5,"CCS(=O)(=O)N1CCC(c2ccc(OCC3=C(c4cccc(-n5ncc(C(=O)O)c5C(F)(F)F)n4)CCCC3)c(C)c2)CC1 [Example 2-8, 1-(6-(2-((4-(1-(ethylsulfonyl)piperidin-4-yl)-2-methylphenoxy)methyl)cyclohex-1-en-1-yl)pyridin-2-yl)-5-(trifluoromethyl)-1H-pyrazole-4-carboxylic acid]"
10,1,"Cc1cc(C2CCN(S(=O)(=O)C3CC3)CC2)ccc1OCC1=C(c2cccc(-n3ncc(C(=O)O)c3C(F)(F)F)n2)CCCC1 [Example 2-9, 1-(6-(2-((4-(1-(cyclopropylsulfonyl)piperidin-4-yl)-2-methylphenoxy)methyl)cyclohex-1-en-1-yl)pyridin-2-yl)-5-(trifluoromethyl)-1H-pyrazole-4-carboxylic acid]"
11,≤ 0.5,"Cc1cc(C2CCN(C(=O)C(C)C)CC2)ccc1OCC1=C(c2cccc(-n3ncc(C(=O)O)c3C(F)(F)F)n2)CCCC1 [Example 2-10, 1-(6-(2-((4-(1-isobutyrylpiperidin-4-yl)-2-methylphenoxy)methyl)cyclohex-1-en-1-yl)pyridin-2-yl)-5-(trifluoromethyl)-1H-pyrazole-4-carboxylic acid]"
12,1,"Cc1cc(C2CCN(C(=O)C3CCC3)CC2)ccc1OCC1=C(c2cccc(-n3ncc(C(=O)O)c3C(F)(F)F)n2)CCCC1 [Example 2-11, 1-(6-(2-((4-(1-(cyclobutanecarbonyl)piperidin-4-yl)-2-methylphenoxy)methyl)cyclohex-1-en-1-yl)pyridin-2-yl)-5-(trifluoromethyl)-1H-pyrazole-4-carboxylic acid]"
13,14,"CCNC(=O)N1CCC(c2ccc(OCC3=C(c4cccc(-n5ncc(C(=O)O)c5C(F)(F)F)n4)CCCC3)c(C)c2)CC1 [Example 2-12, 1-(6-(2-((4-(1-(ethylcarbamoyl)piperidin-4-yl)-2-methylphenoxy)methyl)cyclohex-1-en-1-yl)pyridin-2-yl)-5-(trifluoromethyl)-1H-pyrazole-4-carboxylic acid]"
14,≤ 0.5,"Cc1cc(C2CCN(C(=O)[C@H](C)O)CC2)ccc1OCC1=C(c2cccc(-n3ncc(C(=O)O)c3C(F)(F)F)n2)CCCC1 [Example 3, (S)-1-(6-(2-((4-(1-(2-hydroxypropanoyl)piperidin-4-yl)-2-methylphenoxy)methyl)cyclohex-1-en-1-yl)pyridin-2-yl)-5-(trifluoromethyl)-1H-pyrazole-4-carboxylic acid]"
15,164,"Cc1cc(C2CCN(C(=O)[C@@H](C)O)CC2)ccc1OCC1=C(c2cccc(-n3ncc(C(=O)O)c3C(F)(F)F)n2)CCCC1 [Example 4-1, (R)-1-(6-(2-((4-(1-(2-hydroxypropanoyl)piperidin-4-yl)-2-methylphenoxy)methyl)cyclohex-1-en-1-yl)pyridin-2-yl)-5-(trifluoromethyl)-1H-pyrazole-4-carboxylic acid]"
16,8.4,"Cc1cc(C2CCN(C(=O)c3ccccn3)CC2)ccc1OCC1=C(c2cccc(-n3ncc(C(=O)O)c3C(F)(F)F)n2)CCCC1 [Example 4-2, 1-(6-(2-((2-methyl-4-(1-picolinoylpiperidin-4-yl)phenoxy)methyl)cyclohex-1-en-1-yl)pyridin-2-yl)-5-(trifluoromethyl)-1H-pyrazole-4-carboxylic acid]"
17,10,"Cc1cccc(CN2CCc3cc(OCC4=C(c5cccc(-n6ncc(C(=O)O)c6C(F)(F)F)n5)CCCC4)ccc3C2)n1 [Example 5, 1-(6-(2-(((2-((6-Methylpyridin-2-yl)methyl)-1,2,3,4-tetrahydroisoquinolin-6-yl)oxy)methyl)cyclohex-1-en-1-yl)pyridin-2-yl)-5-(trifluoromethyl)-1H-pyrazole-4-carboxylic acid]"
18,2.8,"Cc1cc(C2CCN(CC(F)(F)F)CC2)ccc1OCC1=C(c2cccc(-n3ncc(C(=O)O)c3C(F)(F)F)n2)CCCC1 [Example 6-1, 1-(6-(2-((2-methyl-4-(1-(2,2,2-trifluoroethyl)piperidin-4-yl)phenoxy)methyl)cyclohex-1-en-1-yl)pyridin-2-yl)-5-(trifluoromethyl)-1H-pyrazole-4-carboxylic acid]"
19,16,"O=C(O)c1cnn(-c2cccc(C3=C(COc4ccc5c(c4)CCN(Cc4ccc6ccccc6n4)C5)CCCC3)n2)c1C(F)(F)F [Example 6-2, 1-(6-(2-(((2-(quinolin-2-ylmethyl)-1,2,3,4-tetrahydroisoquinolin-6-yl)oxy)methyl)cyclohex-1-en-1-yl)pyridin-2-yl)-5-(trifluoromethyl)-1H-pyrazole-4-carboxylic acid]"
20,374,"Cc1cc(C2CCN(CC3CC3)CC2)ccc1OCC1=C(c2cccc(-n3ncc(C(=O)O)c3C(F)(F)F)n2)CCCC1 [Example 6-3, 1-(6-(2-((4-(1-(Cyclopropylmethyl)piperidin-4-yl)-2-methylphenoxy)methyl)cyclohex-1-en-1-yl)pyridin-2-yl)-5-(trifluoromethyl)-1H-pyrazole-4-carboxylic acid]"
21,1,"CCc1cc(OCC2=C(c3cccc(-n4ncc(C(=O)O)c4C(F)(F)F)n3)CCCC2)ccc1C1CCN(C(=O)C2CC2)CC1 [Example 7, 1-(6-(2-((4-(1-(Cyclopropanecarbonyl)piperidin-4-yl)-3-ethylphenoxy)methyl)cyclohex-1-en-1-yl)pyridin-2-yl)-5-(trifluoromethyl)-1H-pyrazole-4-carboxylic acid]"

row,Structure (SMILES),EC50 [nM]
1,"Cc1cc(C2CCN(C(=O)OC(C)(C)C)CC2)ccc1OCC1=C(c2cccc(-n3ncc(C(=O)O)c3C(F)(F)F)n2)CCCC1 [Example 2-13, 1-(6-(2-((4-(1-(tert-butoxycarbonyl)piperidin-4-yl)-2-methylphenoxy)methyl)cyclohex-1-en-1-yl)pyridin-2-yl)-5-(trifluoromethyl)-1H-pyrazole-4-carboxylic acid]",110
